The values below are quoted from earlier work in patent US20130143937A1, “CHLORTHALIDONE COMBINATIONS” (Boehringer Ingelheim International GmbH, priority 2003, published 2013).

Molecules are shown by their SMILES.

The conditions of this series: in vivo.

On to `NS(=O)(=O)c1cc(C2(O)NC(=O)c3ccccc32)ccc1Cl` (centres unmarked) [chlorthalidone, 2-chloro-5-(2,3-dihydro-1-hydroxy-3-oxo-1h-isoindol-1-yl)benzene-sulfonamide], for which the mean plasma half-life is 40 to 60 h. Take `NS(=O)(=O)c1cc2c(cc1Cl)NCNS2(=O)=O` [hydrochlorothiazide]: the mean plasma half-life result is on record as “about 24 hours”.
